Source: patent EP4667463A1, “DOMIDE MOLECULAR GLUE DERIVATIVE AND USE THEREOF” (CSPC Megalith Biopharmaceutical Co., Ltd., priority 2023, dated 2024)

Assays:
[1] = in vitro; conditions: mouse, liver microsomes
Description: (§2) The final concentration of the substrate in the incubation system was 1 µM, and the incubation time was 60 min. Sampling was performed at 0 min, 5 min, 15 min, 30 min, and 60 min. The reaction was stopped with glacial acetonitrile containing an internal standard (testosterone-d3 at a concentration of 10 ng/mL). Verapamil was used as a positive control. […] The natural logarithm of the remaining percentage was subjected to linear fitting with time to determine the elimination rate constant (k).

[2] = Metabolic stability in liver microsomes; conditions: Dog liver microsomes, after 60 min of incubation
Description: as §2

[3] = Metabolic stability in liver microsomes; conditions: Rat liver microsomes, after 60 min of incubation
Description: as §2

[4] = system: HCT-15; test: Activity in cell strains with high expression of efflux pump proteins, cell viability assay; format: cell-based; conditions: Homo sapiens, HCT-15 cells, 96 h
Description: (§1) Three types of cells used for evaluating the activity of the compounds of the present disclosure against a cell strain with high expression of efflux pump proteins were all purchased from Nanjing Cobioer Biosciences Co., Ltd., and all the cells were derived from ATCC (American Type Culture Collection). Various tumor cells were cultured until the cell confluency reached 80%-90%, with cell viability above 90% as determined by trypan blue exclusion. Then, the cells were plated. Specifically, after cell density optimization, 75 µL of each of three cell suspensions of SNU-5, HCT-15, and AsPc-1 cells (3000 cells/well) was inoculated into a BeyoGold™ ultra-low attachment black clear-bottom 96-well plate (Cat. No.: FULA965-24pcs), and the plate was incubated overnight in a cell incubator at 37 °C with carbon dioxide. The next day, after the cells adhered to the wall, 75 µL of the compounds diluted with the corresponding culture media were added. Specifically, the compounds were serially diluted at a 5-fold gradient starting from the highest concentration of 1 µM, with a final DMSO concentration of 1‰, and the test compounds were then added to the cell culture plate. The plate was incubated in an incubator at 37 °C with 5% carbon dioxide for 96 h. Before measurement, the CellTiter-Lumi™ luminescent cell viability assay reagent was equilibrated to room temperature in the dark. Then, 50 µL of the CellTiter-Lumi™ (Cat. No.: C0065XL) cell viability assay reagent was added to each well of the 96-well plate. The plate was shaken in the dark on a shaker at 300 rpm for 10 min to ensure complete cell lysis. After the reaction was completed, the chemiluminescence intensity was measured on a multi-mode microplate reader. The cell viability inhibition rate was determined according to the chemiluminescence intensity. Then, a cell viability curve was generated by Graphpad Prism 8.0, and the IC50 values were calculated. Table 3. Activity of the compounds of the present disclosure in cell strains with high expression of efflux pump proteins (IC50 value)

[5] = system: SNU-5; test: as above; format: cell-based; conditions: Homo sapiens, SNU-5 cells, 96 h
Description: as §1

[6] = system: AsPc-1; test: as above; format: cell-based; conditions: Homo sapiens, ASPC1, AsPc-1 cells, 96 h
Description: as §1

Which results are given for `O=C1CCC(N2Cc3cc(CNC(=O)Nc4ccc(CCCOC5CCCNC5)c(Cl)c4)ccc3C2=O)C(=O)N1` (stereo not shown) [Compound B19]?
CLint scaled at 1 µM [1]: 17 mL/min/kg; half-life at 1 µM [1]: 5.48 h; Parent drug remaining % [2]: 118%; Parent drug remaining % [3]: 88.1%; IC50 [4]: 200 to 1000 nM; IC50 [5]: < 50 nM; IC50 [6]: 50 to 200 nM
